What was measured:
[1] = Half life in mouse plasma at 0.2 mg/kg, iv or 5 mg/kg, po; assay type: ADME, organism-based
[2] = system: Mus musculus; assay: Elevation of HDL cholesterol level in human Apo-A1 transgenic C57B6 mouse at 20 mg/kg, po bid after 5 days; assay type: functional
[3] = system: Mus musculus; assay: Reduction of VLDL cholesterol level in human Apo-A1 transgenic C57B6 mouse at 20 mg/kg, po bid after 5 days; assay type: functional; design: scale not given: the % may be the effect or the level left
[4] = Cmax in mouse plasma at 5 mg/kg, po; assay type: ADME, organism-based; design: dose 5 mg/kg, route oral
[5] = target: T1, Peroxisome proliferator-activated receptor gamma (Mus musculus, UniProt P37238)
T1 sequence (P37238 whole entry): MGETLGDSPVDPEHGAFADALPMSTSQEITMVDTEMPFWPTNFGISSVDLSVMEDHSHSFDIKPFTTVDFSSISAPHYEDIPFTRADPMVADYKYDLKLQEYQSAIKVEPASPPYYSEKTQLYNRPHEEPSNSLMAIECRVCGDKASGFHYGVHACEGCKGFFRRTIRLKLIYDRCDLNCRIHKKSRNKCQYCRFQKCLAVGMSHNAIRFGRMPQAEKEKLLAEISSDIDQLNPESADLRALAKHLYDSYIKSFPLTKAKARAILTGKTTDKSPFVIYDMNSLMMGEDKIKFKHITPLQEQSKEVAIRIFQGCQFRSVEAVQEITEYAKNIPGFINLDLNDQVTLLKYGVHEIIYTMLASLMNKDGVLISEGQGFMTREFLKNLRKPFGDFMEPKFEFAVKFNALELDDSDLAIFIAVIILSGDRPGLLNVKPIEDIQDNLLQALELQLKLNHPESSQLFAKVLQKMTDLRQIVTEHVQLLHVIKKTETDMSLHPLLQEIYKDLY
Description: Agonist activity at mouse PPARgamma assessed as receptor activation by cell based assay

[6] = target: T2, Peroxisome proliferator-activated receptor alpha (Homo sapiens, UniProt Q07869)
T2 sequence (Q07869 whole entry): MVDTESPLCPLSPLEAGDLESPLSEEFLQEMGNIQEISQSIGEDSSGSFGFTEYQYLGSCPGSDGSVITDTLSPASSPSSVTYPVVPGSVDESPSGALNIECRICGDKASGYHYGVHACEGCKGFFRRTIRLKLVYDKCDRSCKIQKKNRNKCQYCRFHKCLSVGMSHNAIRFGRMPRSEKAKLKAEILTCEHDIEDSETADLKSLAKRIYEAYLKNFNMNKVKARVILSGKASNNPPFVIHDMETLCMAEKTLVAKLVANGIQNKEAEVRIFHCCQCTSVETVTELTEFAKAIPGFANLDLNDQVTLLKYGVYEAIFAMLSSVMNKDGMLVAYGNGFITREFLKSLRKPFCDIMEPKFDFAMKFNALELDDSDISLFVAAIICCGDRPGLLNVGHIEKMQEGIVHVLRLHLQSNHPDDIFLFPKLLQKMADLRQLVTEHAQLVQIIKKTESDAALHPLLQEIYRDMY
Description: Agonist activity at human PPARalpha assessed as receptor activation by cell based assay

[7] = target: T3, Peroxisome proliferator-activated receptor delta (Homo sapiens, UniProt Q03181)
T3 sequence (Q03181 whole entry): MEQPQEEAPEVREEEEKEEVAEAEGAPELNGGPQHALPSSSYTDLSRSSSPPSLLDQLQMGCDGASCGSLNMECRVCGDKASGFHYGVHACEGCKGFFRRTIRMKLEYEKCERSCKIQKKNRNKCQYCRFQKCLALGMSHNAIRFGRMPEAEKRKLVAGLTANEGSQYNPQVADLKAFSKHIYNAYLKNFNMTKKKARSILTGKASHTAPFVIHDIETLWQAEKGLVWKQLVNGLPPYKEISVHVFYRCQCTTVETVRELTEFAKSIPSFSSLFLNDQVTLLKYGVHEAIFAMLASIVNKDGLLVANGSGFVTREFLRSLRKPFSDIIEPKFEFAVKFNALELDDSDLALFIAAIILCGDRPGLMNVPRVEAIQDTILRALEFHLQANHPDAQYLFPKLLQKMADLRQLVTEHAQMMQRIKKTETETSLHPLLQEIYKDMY
Description: Agonist activity at human PPARdelta assessed as receptor activation by cell based assay

[8] = target: T4, Peroxisome proliferator-activated receptor gamma (Homo sapiens, UniProt P37231)
T4 sequence (P37231 whole entry): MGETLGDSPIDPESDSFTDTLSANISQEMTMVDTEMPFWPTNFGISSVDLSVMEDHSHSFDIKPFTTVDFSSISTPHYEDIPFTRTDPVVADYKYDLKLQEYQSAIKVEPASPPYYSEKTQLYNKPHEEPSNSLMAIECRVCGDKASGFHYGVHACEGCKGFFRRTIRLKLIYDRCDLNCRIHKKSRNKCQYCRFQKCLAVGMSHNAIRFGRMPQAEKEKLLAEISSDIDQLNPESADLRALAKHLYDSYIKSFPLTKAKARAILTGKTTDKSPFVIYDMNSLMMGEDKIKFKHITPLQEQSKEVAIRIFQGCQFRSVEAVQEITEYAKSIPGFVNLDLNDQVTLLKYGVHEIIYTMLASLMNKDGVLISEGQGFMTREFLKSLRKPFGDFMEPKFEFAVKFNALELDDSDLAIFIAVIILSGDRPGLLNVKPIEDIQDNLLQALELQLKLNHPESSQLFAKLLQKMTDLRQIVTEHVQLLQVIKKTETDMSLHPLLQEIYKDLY
Description: Agonist activity at human PPARgamma assessed as receptor activation by cell based assay

[9] = Clearance in mouse plasma at 0.2 mg/kg, iv or 5 mg/kg, po; assay type: ADME, organism-based
[10] = system: Mus musculus; assay: Reduction of LDL cholesterol level in human Apo-A1 transgenic C57B6 mouse at 20 mg/kg, po bid after 5 days; assay type: functional; design: scale not given: the % may be the effect or the level left
[11] = AUC in mouse plasma at 5 mg/kg, po; assay type: ADME, organism-based; design: dose 5 mg/kg, route oral
[12] = target: T5, Peroxisome proliferator-activated receptor delta (Mus musculus, UniProt P35396)
T5 sequence (P35396 whole entry): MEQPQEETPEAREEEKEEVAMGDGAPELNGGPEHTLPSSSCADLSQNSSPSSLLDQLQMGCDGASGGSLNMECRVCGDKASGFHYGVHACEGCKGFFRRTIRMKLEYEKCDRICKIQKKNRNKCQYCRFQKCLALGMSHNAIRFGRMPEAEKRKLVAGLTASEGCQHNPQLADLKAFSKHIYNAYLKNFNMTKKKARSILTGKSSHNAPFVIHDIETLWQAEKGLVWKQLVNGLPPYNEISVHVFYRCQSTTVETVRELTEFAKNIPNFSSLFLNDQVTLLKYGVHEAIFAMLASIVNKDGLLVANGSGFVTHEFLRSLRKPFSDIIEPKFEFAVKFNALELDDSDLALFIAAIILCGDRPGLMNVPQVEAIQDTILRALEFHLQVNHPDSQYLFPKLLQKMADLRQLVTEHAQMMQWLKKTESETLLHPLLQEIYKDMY
Description: Agonist activity at mouse PPARdelta assessed as receptor activation by cell based assay

[13] = Oral bioavailability in mouse at 5 mg/kg; assay type: ADME, organism-based; conditions: in vivo
[14] = target: T6, Peroxisome proliferator-activated receptor alpha (Mus musculus) (UniProt P23204)
T6 sequence (whole entry): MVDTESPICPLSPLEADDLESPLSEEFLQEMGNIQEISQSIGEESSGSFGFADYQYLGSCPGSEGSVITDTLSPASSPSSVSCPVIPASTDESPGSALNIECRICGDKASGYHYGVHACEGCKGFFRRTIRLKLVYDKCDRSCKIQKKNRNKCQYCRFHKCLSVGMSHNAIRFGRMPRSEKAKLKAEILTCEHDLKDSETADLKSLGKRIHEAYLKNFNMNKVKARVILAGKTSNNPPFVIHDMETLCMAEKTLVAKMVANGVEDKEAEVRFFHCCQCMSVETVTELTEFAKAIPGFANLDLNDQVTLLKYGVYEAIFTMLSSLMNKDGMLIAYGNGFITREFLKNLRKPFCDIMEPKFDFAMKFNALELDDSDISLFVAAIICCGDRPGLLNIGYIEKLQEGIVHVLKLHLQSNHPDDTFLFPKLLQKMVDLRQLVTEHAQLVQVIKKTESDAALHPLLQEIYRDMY
Description: (§1) Agonist activity at mouse PPARalpha assessed as receptor activation by cell based assay

[15] = system: Mus musculus; assay: Reduction of triglyceride level in human Apo-A1 transgenic C57B6 mouse at 20 mg/kg, po bid after 5 days; assay type: functional; design: scale not given: the % may be the effect or the level left
[16] = target: T7, Peroxisome proliferator-activated receptor alpha (Mus musculus, UniProt P23204)
T7 sequence (P23204 whole entry): T6 sequence (whole entry)
Description: as §1

[17] = Volume of distribution in mouse plasma at 0.2 mg/kg, iv or 5 mg/kg, po; assay type: ADME, organism-based; conditions: read-out: Vdss

O=C(NCc1ccc(NS(=O)(=O)C(F)(F)F)cc1)c1ccc(-c2ccc(Cl)cc2)cc1
half-life [1]: 4.9 h
Activity [2]: 102%
Activity [3]: -85%
Cmax [4]: 4520 ng/mL
EC50 [5]: 600 nM
EC50 [6]: 5 nM
EC50 [7]: > 10000 nM
EC50 [8]: 1100 nM
clearance [9]: 0.78 mL/min/kg
Activity [10]: -55%
AUC [11]: 18800 ng·h/mL
EC50 [12]: > 10000 nM
bioavailability [13]: 16%
Activity [14]: 123%
Activity [15]: -69%
EC50 [16]: 20 nM
Vd [17]: 0.22 L/kg

Source: ChEMBL document CHEMBL1140804, “Design, synthesis and evaluation of trifluoromethane sulfonamide derivatives as new potent and selective peroxisome proliferator-activated receptor alpha agonists” (Bioorg Med Chem Lett, 2008)
